From patent US5132299A, “11β-phenyl-4,9,15-estratrienes, their manufacture and pharmaceutical preparations containing same” (Schering Aktiengesellschaft, priority 1987, dated 1992)

Key:
[1] = system: guinea pigs; test: Abortive effect in guinea pigs; assay type: in vivo, guinea pig
Description: The abortive effect of the substances in accordance with the invention (A) and (B) was also determined using guinea pigs as test animals.
The test results gained from guinea pigs permit more reliable predictions to be made on the abortive activity of the tested compound(s) to be expected in the case of humans than is permitted by the data gained with rats.

[2] = molecular target: T1, gestagen receptor (Oryctolagus cuniculus, UniProt P06186); test: Gestagen receptor binding test (3H-progesterone displacement, rabbit uterus cytosol)
T1 sequence (P06186 1-930): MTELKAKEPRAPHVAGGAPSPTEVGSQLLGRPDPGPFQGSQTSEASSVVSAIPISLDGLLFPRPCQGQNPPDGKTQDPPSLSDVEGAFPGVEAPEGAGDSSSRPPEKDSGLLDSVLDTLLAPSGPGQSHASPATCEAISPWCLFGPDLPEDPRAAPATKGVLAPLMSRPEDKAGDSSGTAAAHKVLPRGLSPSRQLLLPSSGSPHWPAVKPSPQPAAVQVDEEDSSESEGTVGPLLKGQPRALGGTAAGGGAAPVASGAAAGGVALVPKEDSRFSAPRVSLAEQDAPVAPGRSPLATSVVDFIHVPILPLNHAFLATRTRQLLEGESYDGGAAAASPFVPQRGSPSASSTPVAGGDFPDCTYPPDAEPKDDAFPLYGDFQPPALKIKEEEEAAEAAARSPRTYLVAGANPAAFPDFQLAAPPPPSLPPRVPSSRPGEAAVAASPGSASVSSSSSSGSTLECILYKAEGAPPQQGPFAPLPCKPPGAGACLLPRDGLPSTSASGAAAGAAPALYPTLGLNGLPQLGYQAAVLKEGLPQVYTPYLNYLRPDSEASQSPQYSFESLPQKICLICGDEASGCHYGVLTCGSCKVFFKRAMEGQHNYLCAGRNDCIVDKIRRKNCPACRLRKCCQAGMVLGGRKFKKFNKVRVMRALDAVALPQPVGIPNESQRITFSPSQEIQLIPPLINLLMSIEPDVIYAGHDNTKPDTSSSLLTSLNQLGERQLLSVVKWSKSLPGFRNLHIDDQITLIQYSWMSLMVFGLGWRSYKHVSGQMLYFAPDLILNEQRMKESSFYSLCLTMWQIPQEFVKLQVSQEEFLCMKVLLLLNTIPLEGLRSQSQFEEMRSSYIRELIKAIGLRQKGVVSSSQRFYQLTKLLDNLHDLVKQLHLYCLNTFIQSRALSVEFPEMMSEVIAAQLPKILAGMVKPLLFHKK
Description: The affinity of the compounds in accordance with the invention to the gestagen receptor is examined with the gestagen receptor binding test. In this test the displacement of the agonist by the antagonist is measured. Cytosol from rabbit uterus homogenate which contains the receptor molecule (a protein) is used in the test. This binds progesterone with high affinity and low capacity. When these receptors are charged with ^3 H-progesterone in the presence of the unlabeled substance to be tested, the extent to which the ^3 H-progesterone is displaced from the receptor depends on the concentration and binding affinity of the compound to be tested. After separation of the receptor-bound progesterone from the non-bound progesterone, the binding can be determined as a percentage and this value plotted against the log of the molar concentration of the test substance. Characteristic dosage-dependent displacement curves are obtained and the concentration of the test substance can be determined which is required to oust the reference substance […] from the receptor.

[3] = system: pregnant rats; test: Abortive test with pregnant rats (antigestagenic effect); assay type: in vivo, rat; settings: for Abortion Rate n aborting/n treated rats: d5-d7 p.c., autopsy d9 p.c.; for abortive effect in words: dose of 0.3 mg, pregnant rats s.c.; for factor by which more effective than RU 486 (C) in the abortive test: pregnant rats, s.c.
Description: The abortifacient activity was determined to define the antigestagenic effect. The tests were carried out on female rats with a weight of approx. 200 g. […] The date on which sperm are detected was considered the 1st day of pregnancy (=dl p.c.). The animals were treated with the substance to be tested or the solvent after nidation of the blastocysts from d5 p.c. to d7 p.c. The animals were killed on d9 p.c. and the uteri were checked for implants and points of resorption. Photos were made of all uteri. Lack of implants was considered as abortions. The test substances were dissolved in a mixture of benzylbenzoate and castor oil (ratio of 1:4). The vehicle volume per individual dose amounted to 0.2 ml. Treatment was subcutaneous (s.c.).

[4] = system: tyrosine amino-transferase (TAT) in RHC (Rat Hepatoma Cells); test: Antiglucocorticoid activity: tyrosine amino-transferase (TAT) induction in RHC cultures; assay type: cell-based; settings: for antiglucocorticoid activity as % of the activity of the standard compound RU 486 (C): TAT test in RHC, simultaneous treatment with corticoid; for EC (max): Rattus norvegicus, read-out: concentration of max. TAT activity (induction)
Description: To identify the antiglucocorticoid activity, the effect of the substances in accordance with the invention on the tyrosine amino-transferase was determined. The test system is based on measurement of the activity of the liver enzyme tyrosine amino-transferase (TAT) in cultures of RHC (Rat Hepatoma Cells). The enzyme catalyzes the first step in the metabolism of tyrosine and can be induced by glucocorticoids both in the liver and in hepatoma cells. The activity is easy to measure in raw extracts (Granner and Tomkins, (1970) Meth. Enzymol. 15, 633). The enzyme converts the amino group of tyrosine to 2-oxoglutaric acid. Glutaminic acid and p-hydroxy-phenylpyruvate are formed. […] Its measured absorption lies at 331 nm. […] The activity can be stimulated by a factor of 4 to 6 above basal value. Simultaneous treatment with corticoid and antiglucocorticoid leads to a decrease in the TAT activity.

strength in the gestagen receptor binding test compared with standard compound (C) [2] | Compound | abortifacient effect compared with compound (D) [1] | Abortion Rate n aborting/n treated rats ([3]; 0.3 mg/animal/day s.c.) | Abortion Rate n aborting/n treated rats ([3]; 1.0 mg/animal/day s.c.) | Abortion Rate n aborting/n treated rats ([3]; 3.0 mg/animal/day s.c.) | abortive effect in words [3] | factor by which more effective than RU 486 (C) in the abortive test [3] | antiglucocorticoid activity as % of the activity of the standard compound RU 486 (C) [4] | EC (max) [4]
much stronger | CC#C[C@]1(O)C=C[C@H]2[C@@H]3CCC4=CC(=O)CCC4=C3[C@@H](c3ccc(C(C)=O)cc3)C[C@@]21C [A, 11β-(4-acetylphenyl)-17β-hydroxy-17α-(prop-1-inyl)-4,9,15-estratrien-3-one] | strikingly higher abortifacient effect | 4/4 | 4/4 | 4/4 | fully abortive | 10 | 20-50% | –
about the same strength | C#CC[C@]1(O)C=C[C@H]2[C@@H]3CCC4=CC(=O)CCC4=C3[C@@H](c3ccc(C(C)=O)cc3)C[C@@]21C [B, 11β-(4-acetylphenyl)-17β-hydroxy-17α-(prop-2-inyl)-4,9,15-estratrien-3-one] | strikingly higher abortifacient effect | 4/4 | 4/4 | 4/4 | fully abortive | 10 | less than 1% | –
– | CC#C[C@]1(O)CC[C@H]2[C@@H]3CCC4=CC(=O)CCC4=C3[C@@H](c3ccc(N(C)C)cc3)C[C@@]21C [C, 11β-(4-dimethylaminophenyl)-17β-hydroxy-17α-(prop-1-inyl)-4,9,(10)-estradien-3-one, reference compound] | – | 0/4 | 2/4 | 4/4 | – | – | – | –
– | CC#C[C@]1(O)CC[C@H]2[C@@H]3CCC4=CC(=O)CCC4=C3[C@@H](c3ccc(C(C)=O)cc3)C[C@@]21C [D, 11β-(4-acetylphenyl)-17β-hydroxy-17α-(prop-1-inyl)-4,9-estradien-3-one, reference compound] | – | 4/4 | 4/4 | 4/4 | – | – | – | –
– | C[C@]12CCC(=O)C=C1CC[C@@H]1[C@@H]2[C@@H](O)C[C@@]2(C)[C@H]1CC[C@]2(O)C(=O)CO [cortisol, reference compound] | – | – | – | – | – | – | – | 1 µM
– | C[C@@H]1C[C@H]2[C@@H]3CCC4=CC(=O)C=C[C@]4(C)[C@@]3(F)[C@@H](O)C[C@]2(C)[C@@]1(O)C(=O)CO [dexamethasone, reference compound] | – | – | – | – | – | – | – | 0.1 µM
